Data from publication PMC4884984, “Identification of approved and investigational drugs that inhibit hypoxia-inducible factor-1 signaling” (Oncotarget, 2016).
Like-named read-outs stand apart in the source and are kept apart here.

Columns and labels:
HIF-1α–NanoLuc = HIF-1α–NanoLuc reporter gene assay (qHTS primary and confirmatory screens); assay type: cell-based, human; settings: Homo sapiens
[1] = test system: hypoxia response element-beta-lactamase (HRE–bla); assay: HRE-bla reporter gene assay in ME-180 cells; assay type: cell-based, human; settings: for Emax / IC50: Homo sapiens
Procedure: (§1) Cell culture of HRE–bla ME-180 cells (Cat. No. K1644, Life Technologies) and HRE–bla assay were conducted according to a reported protocol [6]. […] The fluorescence signals (460/25 nm and 530/20 nm) of CCF4 and luminescence signals of CellTiter-Glo were acquired on an Envision and a ViewLux plate readers (Perkin Elmer), respectively.

[2] = test system: HIF-1α–NanoLuc HCT116 cells; assay: Viability (Luc): CellTiter-Glo counter screen in HIF-1α–NanoLuc cells; assay type: cell-based, human; settings: Table S7, 1% O2, 18 h
HRE–bla ME-180 cells = assay: Viability (BLA): CellTiter-Glo counter screen in HRE–bla cells; assay type: cell-based, human; settings: for Viability (BLA) confirmatory IC50: Table S7, 1% O2, 18 h; for IC50: Homo sapiens, ME-180, Table S7, confirmatory screen, 1% O2, 18 h
Procedure: as §1

HCT116 cells = assay: Cancer cell proliferation assay, HCT116; assay type: cell-based, human; settings: for IC50 / Emax: Homo sapiens; for Emax: read-out: HCT116 3-Day Viability Efficacy
Procedure: (§2) HCT116 and ME-180 cells (ATCC) were cultured according to manufacturer's instructions. […] Cell proliferation was quantified as relative luminescence unit (RLU) values using CellTiter-Glo viability assay reagent on a ViewLux plate reader (Perkin Elmer).

ME-180 cells = assay: Cancer cell proliferation assay, ME-180; assay type: cell-based; settings: Homo sapiens; for Emax: read-out: ME-180 3-Day Viability Efficacy
Procedure: as §2

[3] = test system: co-cultures of human aortic endothelial cells and human mesenchymal stem cells; assay: In vitro angiogenesis co-culture assay (tube formation); assay type: cell-based; settings: three-day exposure; for IC50 / Emax: Homo sapiens, 72 h, Table 1; for IC50: tube formation; for Emax: percentage of inhibition compared to DMSO controls, read-out: Angiogenesis Efficacy (converted); for Angiogenesis inhibition, result in words: co-culture assay
Procedure: Cells were seeded in a 96-well clear bottom plate (Corning) for five hours and exposed to test compounds for three days at 37°C, 5% CO2.

hypoxia signaling genes = assay: Real-time qPCR of human hypoxia signaling gene panel in ME-180 cells; settings: 1% O2, 18 h, at IC50 concentration of HIF-1α–NanoLuc assay
[4] = HCT-116, Table 1, HCT116 reporter cells, hypoxia 1% O2, 18 h, confirmatory, read-out: HIF-1α-NanoLuc IC50
[5] = Table 1, percentage of inhibition compared to DMSO controls, read-out: HIF-1α-NanoLuc Efficacy (converted)
[6] = Table S2, primary screen, read-out: Pathway inhibitors (primary screen) HIF-1α–NanoLuc Activity Efficacy
[7] = Table S2, primary screen, read-out: Pathway inhibitors (primary screen) HIF-1α–NanoLuc Activity IC50
[8] = Table S2, validation, read-out: Pathway inhibitors (validation) HIF-1α–NanoLuc Activity Efficacy
[9] = Table S7, confirmatory screen, read-out: HIF-1α–NanoLuc confirmatory Efficacy
[10] = Table S7, primary screen, read-out: HIF-1α–NanoLuc primary Efficacy
[11] = HCT-116, Table 1, 72 h, read-out: 72-hr Viability HCT116 IC50
[12] = ME-180, Table 1, 72 h, read-out: 72-hr Viability ME-180 IC50
[13] = ME-180, Table 1, percentage of inhibition compared to DMSO controls, read-out: HRE-bla Efficacy (converted)
[14] = ME-180, Table S7, confirmatory screen, read-out: HRE–bla confirmatory Efficacy
[15] = Table 1, ME-180 cells, 1% O2, 18 h, read-out: HRE-bla IC50
[16] = 18 h, read-out: IC50 (primary screen, HIF-1α–NanoLuc assay)
[17] = read-out: Efficacy (primary screen, HIF-1α–NanoLuc assay)
[18] = read-out: HIF-1α–NanoLuc confirmatory Efficacy
[19] = read-out: HIF-1α–NanoLuc primary Efficacy
[20] = ME-180, Table S7, confirmatory screen, read-out: HRE–bla confirmatory IC50
[21] = HCT-116, 72 h, Table S8, 3 days
[22] = HCT-116, 72 h, Table S8, 3 days, read-out: HCT116 3-Day Viability IC50
[23] = ME-180, 72 h, Table S8, 3 days, read-out: ME-180 3-Day Viability IC50

SMILES	IC50 (HIF-1α–NanoLuc; [4]) [nM]	Emax (HIF-1α–NanoLuc; [5]) [%]	Emax (HIF-1α–NanoLuc; [8]) [%]	Emax (HIF-1α–NanoLuc; [9]) [%]	Viability (Luc) confirmatory IC50 [2]	Viability (BLA) confirmatory IC50 (HRE–bla ME-180 cells)	IC50 (HCT116 cells; [11]) [nM]	IC50 (ME-180 cells; [12]) [nM]	IC50 [3] [nM]	Emax [3] [%]	Emax [1, 13] [%]	Emax [1, 14] [%]	IC50 [1, 15] [nM]	IC50 (HRE–bla ME-180 cells) [nM]	other results
Cn1cnc2c(F)c(Nc3ccc(Br)cc3Cl)c(C(=O)NOCCO)cc21 [Selumetinib]	1490 ± 1300	48	48 ± 10	48 ± 10	Inactive	Inactive	22800 ± 3890	270 ± 60	10	92					Emax (HIF-1α–NanoLuc; [6]): 62%; IC50 (HIF-1α–NanoLuc; [7]): 40 nM; Emax (HIF-1α–NanoLuc; [10]): 62%; HRE-bla IC50 ([1]; Table 1, ME-180 cells, 1% O2, 18 h): Inactive
O=C1c2c(O)ccc(O)c2C(=O)c2c(NCCNCCO)ccc(NCCNCCO)c21 [Mitoxantrone]	7650 ± 2130	110	110 ± 5	110 ± 5	Inactive		11100 ± 4790	110 ± 30	4 ± 3	101	99	99 ± 10	860 ± 520	13400 ± 4400	IC50 (HIF-1α–NanoLuc; Table S1, primary screen, hypoxia 1% O2, 18 h, read-out: IC50 (primary screen, HIF-1α–NanoLuc assay)): 2380 nM; Emax (HIF-1α–NanoLuc; Table S1, primary screen, read-out: Efficacy (primary screen, HIF-1α–NanoLuc assay)): 80%; Emax (HIF-1α–NanoLuc; [6]): 80%; IC50 (HIF-1α–NanoLuc; [7]): 2370 nM; Emax (HIF-1α–NanoLuc; [10]): 80%
Nc1ncn([C@@H]2O[C@H](CO)[C@@H](O)[C@H]2O)c(=O)n1 [5-Azacitidine]						Inactive	13300 ± 1520	18600	4060 ± 1490	80	94	94 ± 2	11000 ± 750		
Oc1cccc(-c2nc(N3CCOCC3)c3oc4ncccc4c3n2)c1 [PI-103]	920 ± 60	57	80 ± 3	57 ± 10	Inactive			370 ± 20	320 ± 90	80	62	62 ± 3	150 ± 20	770 ± 250	IC50 (HIF-1α–NanoLuc; Table S2, validation, read-out: Pathway inhibitors (validation) HIF-1α–NanoLuc Activity IC50): 2770 ± 40 nM; 72-hr Viability HCT116 IC50 (HCT116 cells; Table 1, 72 h): Inactive; Angiogenesis inhibition, result in words [3]: submicromolar concentrations; Effect on expression of hypoxia-induced genes, in words (hypoxia signaling genes): decreased the expression levels of all hypoxia-induced genes tested
COc1c(C)c2c(c(O)c1C/C=C(\C)CCC(=O)OCCN1CCOCC1)C(=O)OC2 [Mycophenolate mofetil]	1580 ± 450	59		59 ± 5	Inactive			1820 ± 740	110 ± 60	93	58	58 ± 4	210 ± 50	530	Emax (HIF-1α–NanoLuc; [10]): 61%; IC50 (HIF-1α–NanoLuc; Table S7, primary screen, read-out: HIF-1α–NanoLuc primary IC50): 330 nM; 72-hr Viability HCT116 IC50 (HCT116 cells; Table 1, 72 h): Inactive; Angiogenesis inhibition, result in words [3]: submicromolar concentrations
CC(=O)Nc1cccc(-n2c(=O)n(C3CC3)c(=O)c3c(Nc4ccc(I)cc4F)n(C)c(=O)c(C)c32)c1 [Trametinib]	2980 ± 4640	69	69 ± 5	69 ± 5	Inactive	Inactive	640 ± 110	60 ± 20	0.05 ± 0.05	89	53	53 ± 9	20500 ± 8110		Angiogenesis inhibition, result in words [3]: picomolar IC50 value; Effect on expression of hypoxia-induced genes, in words (hypoxia signaling genes): decreased expression levels of HIF1A and many hypoxia responsive genes
C[C@H]1O[C@@H](O[C@H]2CC[C@@]3(C)[C@H](CC[C@@H]4[C@@H]3C[C@@H](O)[C@]3(C)[C@@H](C5=CC(=O)OC5)CC[C@]43O)C2)C[C@H](O)[C@@H]1O[C@H]1C[C@H](O)[C@H](O[C@H]2C[C@H](O)[C@H](O[C@@H]3O[C@H](CO)[C@@H](O)[C@H](O)[C@H]3O)[C@@H](C)O2)[C@@H](C)O1 [Deslanoside]					Inactive							102 ± 3		320 ± 90	IC50 (HIF-1α–NanoLuc; [16]): 300 nM; Emax (HIF-1α–NanoLuc; [17]): 115%; Emax (HIF-1α–NanoLuc; [18]): 108 ± 9%; IC50 (HIF-1α–NanoLuc; read-out: HIF-1α–NanoLuc confirmatory IC50): 390 ± 30 nM; Emax (HIF-1α–NanoLuc; [19]): 115%; IC50 [1, 20]: 160 ± 30 nM; Emax (HCT116 cells; [21]): 63 ± 8%; IC50 (HCT116 cells; [22]): 2590 ± 2870 nM; Emax (ME-180 cells; ME-180, 72 h, Table S8, 3 days): 97 ± 3%; IC50 (ME-180 cells; [23]): 310 ± 40 nM
COc1cccc2c1C(=O)c1c(O)c3c(c(O)c1C2=O)C[C@@](O)(C(C)=O)C[C@@H]3O[C@H]1C[C@H](N)[C@H](O)[C@H](C)O1 [Daunorubicin]					Inactive							80 ± 5		3280 ± 1230	IC50 (HIF-1α–NanoLuc; [16]): 750 nM; Emax (HIF-1α–NanoLuc; [17]): 51%; Emax (HIF-1α–NanoLuc; [18]): 98 ± 8%; Emax (HIF-1α–NanoLuc; [19]): 51%; Emax (HIF-1α–NanoLuc; read-out: Pathway inhibitors (primary screen) HIF-1α–NanoLuc Activity Efficacy): 50%; Emax (HIF-1α–NanoLuc; read-out: Pathway inhibitors (validation) HIF-1α–NanoLuc Activity Efficacy): 98 ± 8%; IC50 (HIF-1α–NanoLuc; read-out: Pathway inhibitors (validation) HIF-1α–NanoLuc Activity IC50): 1960 ± 350 nM; IC50 [1, 20]: 1000 ± 440 nM; Emax (HCT116 cells; [21]): 79 ± 28%; IC50 (HCT116 cells; [22]): 2430 ± 1400 nM; Emax (ME-180 cells; ME-180, 72 h, Table S8, 3 days): 101 ± 4%; IC50 (ME-180 cells; [23]): 170 ± 80 nM
CC[C@@]1(O)C(=O)OCc2c1cc1n(c2=O)Cc2cc3ccccc3nc2-1 [Camptothecin]						Inactive	1000 ± 290	40	0.27 ± 0.31	134	84	84 ± 1	200 ± 60		
CC[C@@]1(O)C(=O)OCc2c1cc1n(c2=O)Cc2cc3c(CN(C)C)c(O)ccc3nc2-1 [Topotecan]						Inactive	4300 ± 1200	100 ± 10	10	80	131	131 ± 9	620 ± 380		
O=C(Nc1ccc([N+](=O)[O-])cc1Cl)c1cc(Cl)ccc1O [Niclosamide]								2040	40 ± 30	87	91	84 ± 6	230 ± 50	1630 ± 2580	IC50 [1, 20]: 1670 ± 460 nM; Emax (HCT116 cells; [21]): 83 ± 6%
